Experiments:
CDK1/Cyclin B = CDK1/Cyclin B (Homo sapiens, UniProt P06493); experiment: CDK1/Cyclin B kinase assay (FlashPlate or HTRF); format: biochemical; settings: recombinant human CDK1/Cyclin B, Rb protein substrate; Ki=IC50/(1+[S]/Km)
Protocol: To determine inhibition of CDK1 activity, either FlashPlate™ (NEN™-Life Science Products) assay or HTRF assay was performed. Both types of kinase assays were carried out using recombinant human CDK1/Cyclin B complex. GST-cyclinB (GST-cycB) and CDK1 cDNA clones in baculovirus vectors were provided by Dr. W. Harper at the Baylor College of Medicine, Houston, Tex. Proteins were co-expressed in High Five™ insect cells and the complex was purified on glutathione Sepharose resin (Pharmacia, Piscataway, N.J.) as previously described (Harper, J. W. et al. Cell 1993, 75, 805-816). A 6x-Histidine tagged truncated form of retinoblastoma (Rb) protein (amino acid 386-928) was used as the substrate for the CDK1/Cyclin B assay (the expression plasmid was provided by Dr. Veronica Sullivan, Department of Molecular Virology, Roche Research Centre, Welwyn Garden City, United Kingdom). The Rb protein is a natural substrate for phosphorylation by CDK1 (see Herwig and Strauss Eur. J. Biochem. Vol. 246 (1997) pp. 581-601 and the references cited therein). The expression of the 62Kd protein was under the control of an IPTG inducible promoter in an M15 E. coli strain. Cells were lysed by sonication and purification was carried out by binding lysates at pH 8.0 to a Ni-chelated agarose column pretreated with 1 mM imidazole. The resin was then washed several times with incrementally decreasing pH buffers to pH 6.0, and eluted with 500 mM imidazole. Eluted protein was dialyzed against 20 mM HEPES pH 7.5, 30% glycerol, 200 mM NaCl, and 1 mM DTT. Purified Rb fusion protein stocks were quantitated for protein concentration, aliquoted, and stored at −70° C.
For the FlashPlate kinase assay, 96-well FlashPlates were coated with Rb protein at 10 μg/ml, using 100 μl per well. Plates were incubated at 4° C. overnight or at room temperature for 3 hours on a shaker. […] Plates were washed four times with the wash buffer, sealed, and counted on the TopCount scintillation counter (Packard Instrument Co., Downers Grove, Ill.]. The percent inhibition of Rb phosphorylation, which is a measure of the inhibition of CDK activity, was determined according to the following formula:
[formula] where “test compound” refers to the average counts per minute of the test duplicates, “nonspecific” refers to the average counts per minute when no CDK1/Cyclin B, etc., was added, and “total” refers to the average counts per minute when no compound was added. […] The value of the inhibitor constant Ki is calculated by the following: Ki=IC50/(1+[S]/Km), where [S] is the ATP concentration and Km is Michaelis constant.
The Homogeneous Time Resolved Fluorescence (HTRF) kinase assay was carried out in 96-well polypropylene plates (BD Biosciences, Bedford, Mass.). […]

CDK2/Cyclin E = CDK2/Cyclin E (Homo sapiens, UniProt P24941); experiment: CDK2/Cyclin E kinase assay (procedure as for CDK1/Cyclin B); format: biochemical; settings: CDK2/Cyclin E complex, Rb protein substrate; Ki=IC50/(1+[S]/Km)
Protocol: For the FlashPlate kinase assay, 96-well FlashPlates were coated with Rb protein at 10 μg/ml, using 100 μl per well. Plates were incubated at 4° C. overnight or at room temperature for 3 hours on a shaker. To control for nonspecific phosphorylation, one row of wells was coated with 100 μl/well coating buffer (20 mM HEPES, 0.2 M NaCl). Plates were then washed twice with wash buffer (0.01% Tween 20 in phosphate-buffered saline). Compounds to be tested (“test compounds”) were added to the wells at 5× final concentration. Reactions were initiated by immediate addition of 40 μl reaction mix (25 mM HEPES, 20 mM MgCl2, 0.002% Tween 20, 2 mM DTT, 1 μM ATP, 4 nM 33P-ATP) and a sufficient amount of enzyme to give counts that were at least 10-fold above background. Plates were incubated at room temperature on a shaker for 30 minutes. Plates were washed four times with the wash buffer, sealed, and counted on the TopCount scintillation counter (Packard Instrument Co., Downers Grove, Ill.]. The percent inhibition of Rb phosphorylation, which is a measure of the inhibition of CDK activity, was determined according to the following formula:
[formula] where “test compound” refers to the average counts per minute of the test duplicates, “nonspecific” refers to the average counts per minute when no CDK1/Cyclin B, etc., was added, and “total” refers to the average counts per minute when no compound was added. The IC50 value is the concentration of test compound that reduces by 50% the protein-kinase induced incorporation of the radiolabel under the test conditions described. The value of the inhibitor constant Ki is calculated by the following: Ki=IC50/(1+[S]/Km), where [S] is the ATP concentration and Km is Michaelis constant.
The Homogeneous Time Resolved Fluorescence (HTRF) kinase assay was carried out in 96-well polypropylene plates (BD Biosciences, Bedford, Mass.). Test compounds were first dissolved in DMSO, and then diluted in kinase assay buffer 1 (25 mM HEPES, pH7.0, 8 mM MgCl2, 1.5 mM DTT, and 162 μM ATP) with DMSO concentration at 15%. The CDK1/Cyclin B enzyme was diluted in kinase assay buffer 2 (25 mM HEPES, pH 7.0, 8 mM MgCl2, 0.003% Tween 20, 0.045% BSA, 1.5 mM DTT, and 0.675 μM Rb protein). To initiate the kinase reaction, 20 μL of compound solution was mixed with 40 μL of CDK1/Cyclin B solution in assay plates with final concentration of CDK1/Cyclin B and Rb at 0.1 μg/mL and […], respectively, and incubated at 37° C. for 30 min. […] At the completion of the incubation, 35 μL of reaction mixture was transferred to fresh 384-well black polystyrene plates (Corning Incorporated, Corning, N.Y.) and read on a fluorescent plate reader at excitation wavelength of 340 nm and emission wavelength of 665/615 nm. […]

Sequence of CDK1/Cyclin B (P06493 whole entry, the tested form may be a part): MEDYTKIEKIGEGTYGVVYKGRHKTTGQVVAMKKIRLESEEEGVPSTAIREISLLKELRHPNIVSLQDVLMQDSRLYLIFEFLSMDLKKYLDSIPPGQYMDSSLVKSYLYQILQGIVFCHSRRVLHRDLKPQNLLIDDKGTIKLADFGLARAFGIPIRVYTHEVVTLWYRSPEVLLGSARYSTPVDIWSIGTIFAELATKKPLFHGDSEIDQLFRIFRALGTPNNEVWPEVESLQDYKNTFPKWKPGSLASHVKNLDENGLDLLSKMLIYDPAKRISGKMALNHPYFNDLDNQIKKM
Sequence of CDK1/Cyclin B (P14635 whole entry partner, the tested form may be a part): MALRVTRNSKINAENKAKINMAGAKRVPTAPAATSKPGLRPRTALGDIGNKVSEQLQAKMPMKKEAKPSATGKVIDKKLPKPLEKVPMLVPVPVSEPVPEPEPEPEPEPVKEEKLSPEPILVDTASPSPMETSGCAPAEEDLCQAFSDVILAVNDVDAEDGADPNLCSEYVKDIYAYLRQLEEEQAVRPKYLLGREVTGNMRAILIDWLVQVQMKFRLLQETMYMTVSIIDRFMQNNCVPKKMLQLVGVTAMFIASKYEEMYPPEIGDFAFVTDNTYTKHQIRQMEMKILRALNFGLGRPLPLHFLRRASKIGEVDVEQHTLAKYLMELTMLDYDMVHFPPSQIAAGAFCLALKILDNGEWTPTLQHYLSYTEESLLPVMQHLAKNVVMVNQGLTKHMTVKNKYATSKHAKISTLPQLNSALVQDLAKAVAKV

| SMILES | melting point | Ki (CDK1/Cyclin B) | Ki (CDK2/Cyclin E) |
| --- | --- | --- | --- |
| O=C1N=C(NCc2cccs2)S/C1=C\c1c[nH]c2ncccc12 [Example 1, 5-[1-(1H-Pyrrolo[2,3-b]pyridin-3-yl)-meth-(Z)-ylidine]-2-[(thiophen-2-ylmethyl)-amino]-thiazol-4-one] | 243 to 246 °C |  |  |
| O=C1N=C(N[C@@H](CO)c2ccccc2)S/C1=C\c1c[nH]c2ncccc12 [Example 3, 2-(2-Hydroxy-1-(R)-phenyl-ethylamino)-5-[1-(1H-pyrrolo[2,3-b]pyridin-3-yl)-meth-(Z)-ylidine]-thiazol-4-one] | 317 to 319 °C |  |  |
| O=C1N=C(NCc2ccc(F)c(Cl)c2)S/C1=C\c1c[nH]c2ncccc12 [Example 4, 2-(3-Chloro-4-fluorobenzylamino)-5-[1-(1H-pyrrolo[2,3-b]pyridin-3-yl)-meth-(Z)-ylidine]-thiazol-4-one] | 318 to 320 °C |  |  |
| O=C1N=C(NC2C[C@@H]2c2ccccc2)S/C1=C\c1c[nH]c2ncccc12 (stereo partly drawn) [Example 5, 2-((1R,2S)-2-Phenyl-cyclopropylamino)-5-[1-(1H-pyrrolo[2,3-b]pyridin-3-yl)-meth-(Z)-ylidine]-thiazol-4-one] | 308 to 310 °C | 10 nM | 17 nM |

The next lines start with the values.

| melting point | Ki (CDK1/Cyclin B) | Ki (CDK2/Cyclin E) | SMILES |
| --- | --- | --- | --- |
| 269 to 271 °C |  |  | CC(C)[C@H](CO)NC1=NC(=O)/C(=C/c2c[nH]c3ncccc23)S1 [Example 6, 2-(1-(R)-Hydroxymethyl-2-methylpropylamino)-5-[1-(1H-pyrrolo[2,3-b]pyridin-3-yl)-meth-(Z)-ylidine]-thiazol-4-one] |
| 243.7 to 246.8 °C |  |  | CC(=O)OC[C@H](NC1=NC(=O)/C(=C/c2c[nH]c3ncccc23)S1)c1ccccc1 [Example 7, Acetic Acid 2-[4-oxo-5-(1H-pyrrolo[2,3,b]pyridine-3-ylmethylene)-4,5-dihydro-thiazol-2-ylamino]-2-(R)-phenyl-ethyl ester] |
|  | 48 nM | 18 nM | Cc1ccsc1CNC1=NC(=O)/C(=C/c2c[nH]c3ncccc23)S1 [Example 10, 2-[(3-Methyl-thiophen-2-ylmethyl)-amino)-5-[1-(1H-pyrrolo[2,3-b]pyridin-3-yl)-meth-(Z)-ylidine]-thiazol-4-one] |
|  | 830 nM | 252 nM | NC1=NC(=O)/C(=C/c2c[nH]c3ncccc23)S1 [Example 15, 2-Amino-5-[1-(1H-pyrrolo[2,3-b]pyridin-3-yl)-meth-(Z)-ylidene]-thiazol-4-one] |
|  | 1150 nM | 187 nM | COc1ccccc1NC1=NC(=O)/C(=C/c2c[nH]c3ncccc23)S1 [Example 18, 2-(2-Methoxy-phenylamino)-5-[1-(1H-pyrrolo[2,3-b]pyridin-3-yl)-meth-(Z)-ylidene]-thiazol-4-one] |
